For this assay, the target named is T1, KCNQ2/3 channels (Homo sapiens, UniProt O43525+O43526).
T1 construct: expressed in transfected cells; host or cells: CHO-K1
In words: Fluorescence assay using a voltage sensitive dye (fluorimetry). The settings on record: CHO-K1 cells expressing KCNQ2/3 channels; for Emax: relative to retigabine = 100%, read-out: Fluorimetry % Efficacy (retigabine = 100%); for EC50: voltage-sensitive dye, KCl depolarisation, read-out: Fluorimetry EC50/IC50. It is filed as cell-based. The procedure:
Pharmacological Experiments Fluorescence Assay Using a Voltage Sensitive Dye (Fluorimetry)
Human CHO-K1 cells expressing KCNQ2/3 channels are cultivated adherently at 37° C., 5% CC2 and 95% humidity in cell culture bottles (e.g. 80 cm^2 TC flasks, Nunc) with DMEM-high glucose (Sigma Aldrich, D7777) including 10% FCS (PAN Biotech, e.g. 3302-P270521) or alternatively MEM Alpha Medium (1×, liquid, Invitrogen, #22571), 10% fetal calf serum (FCS) (Invitrogen, #10270-106, heat-inactivated) and the necessary selection antibiotics.
Before being sown out for the measurements, the cells are washed with 1×DPBS buffer Ca^2+/Mg^2+-free (e.g. Invitrogen, #14190-094) and detached from the bottom of the culture vessel by using Accutase (PAA Laboratories, #L11-007) (incubation with Accutase for 15 min at 37° C.). The cell number is determined using a CASY™ cell counter (TCC, Schärfe System). Depending on the optimal density for each individual cell line, 20,000-30,000 cells/well/100 μl are seeded onto 96-well Corning™ CeIIBIND™ assay plates (Flat Clear Bottom Black Polystyrene Microplates, #3340). Freshly seeded cells are then left to settle for one hour at room temperature, followed by incubation for 24 hours at 37° C., 5% CO2 and 95% humidity.
The voltage-sensitive fluorescent dye from the Membrane Potential Assay Kit (Red™ Bulk format part R8123 for FLIPR, MDS Analytical Technologies™) is prepared by dissolving the contents of one vessel Membrane Potential Assay Kit Red Component A in 200 ml of extracellular buffer (ES buffer, 120 mM NaCl, 1 mM KCl, 10 mM HEPES, 2 mM CaCl2, 2 mM MgCl2, 10 mM glucose; pH 7.4). After removal of the nutrient medium, the cells are washed once with 200 μl of ES buffer, then loaded for 45 min at room temperature in 100 μl of dye solution in the dark.
Fluorescence measurements are carried out in a BMG Labtech FLUOstar™, BMG Labtech NOVOstar™ or BMG Labtech POLARstar™ instrument (525 nm excitation, 560 nm emission, Bottom Read mode). After incubation with the dye, 50 μl of the test substances in the desired concentrations, or 50 μl of ES buffer for control purposes, are applied to the wells of the assay plate and incubated for 30 min at room temperature while being shielded from light. The fluorescence intensity of the dye is then measured for 5 min and the fluorescence value F1 of each well is thus determined at a given, constant time. 15 μl of a KCl solution are then added to each well (final concentration of potassium ions 92 mM). The change in fluorescence intensity is subsequently monitored until all the relevant values have been obtained (mainly 5-30 min). At a given time post KCl application, a fluorescence value F2 is determined, in this case at the time of the fluorescence peak.
For calculation, the fluorescence intensity F2 is corrected for the fluorescence intensity F1, and the activity (ΔF/F) of the target compound on the potassium channel is determined as follows:
In order to determine whether a substance has agonistic activity,
[formula] can be related to
[formula] of control wells.
[formula] is determined by adding to the well only the buffer solution instead of the test substance, determining the value F1K of the fluorescence intensity, adding the potassium ions as described above, and measuring a value F2K of the fluorescence intensity. F2K and F1K are then calculated as follows: […]
A substance has an agonistic activity on the potassium channel if
[formula] is greater than
Independently of the comparison of
[formula] it is possible to conclude that a target compound has agonistic activity if
[formula] increases dose dependently.
Calculations of EC50 and IC50 values are carried out with the aid of ‘Prism v4.0’ software (GraphPad Software™).

In the case of `CC(C)CCNC(=O)c1ccccc1SCCC(F)(F)c1ccc(F)cc1` [Example 1, 2-[[3,3-Difluoro-3-(4-fluorophenyl)-propyl]sulfanyl]-N-(3-methyl-butyl)-benzamide], the Emax was found to be 203% and the EC50 amounted to 156 nM.
Taken in the same sequence, the figures for `CC(C)(C)CCNC(=O)c1ccccc1SCCCc1ccc(F)cc1` [Example 2, N-(3,3-Dimethyl-butyl)-2-[3-(4-fluorophenyl)-propylsulfanyl]-benzamide] were 186% and 501 nM.
With `CC(C)CCNC(=O)c1ncccc1SCCC(F)(F)c1ccc(F)cc1` [Example 3, 3-[[3,3-Difluoro-3-(4-fluorophenyl)-propyl]sulfanyl]-N-(3-methyl-butyl)-pyridine-2-carboxylic acid amide], the Emax came to 118% and the EC50 was determined as 1590 nM.
Taken in the same sequence, the figures for `CC(C)CCNC(=O)c1cnccc1SCCC(F)(F)c1ccc(F)cc1` [Example 5, 4-[[3,3-Difluoro-3-(4-fluorophenyl)-propyl]sulfanyl]-N-(3-methyl-butyl)-pyridine-3-carboxylic acid amide] were 228% and 849 nM.
For `O=C(NCc1ccc(F)cc1)c1cnccc1SCCC(F)(F)c1ccc(F)cc1` [Example 6, 4-[[3,3-Difluoro-3-(4-fluorophenyl)-propyl]sulfanyl]-N-[(4-fluorophenyl)-methyl]-pyridine-3-carboxylic acid amide], the Emax was 121% and the EC50 is 563 nM.
For `CC(C)CCNC(=O)c1ccncc1SCCC(F)(F)c1ccc(F)cc1` [Example 7, 3-[[3,3-Difluoro-3-(4-fluorophenyl)-propyl]sulfanyl]-N-(3-methyl-butyl)-pyridine-4-carboxylic acid amide], the Emax turned out to be 197% and the EC50 came out at 1400 nM.
For `CC(C)CCNC(=O)c1nccnc1SCCC(F)(F)c1ccc(F)cc1` [Example 9, 3-[[3,3-Difluoro-3-(4-fluorophenyl)-propyl]sulfanyl]-N-(3-methyl-butyl)-pyrazine-2-carboxylic acid amide] the same measures were 199% and 521 nM.
Taken in the same sequence, the figures for `CC(C)CCNC(=O)c1cncnc1SCCC(F)(F)c1ccc(F)cc1` [Example 10, 4-[[3,3-Difluoro-3-(4-fluorophenyl)-propyl]sulfanyl]-N-(3-methyl-butyl)-pyrimidine-5-carboxylic acid amide] were 211% and 61 nM.
As to `O=C(NCc1ccc(F)cc1)c1cncnc1SCCC(F)(F)c1ccc(F)cc1` [Example 11, 4-[[3,3-Difluoro-3-(4-fluorophenyl)-propyl]sulfanyl]-N-[(4-fluorophenyl)-methyl]-pyrimidine-5-carboxylic acid amide], the Emax came to 112% and the EC50 was 51 nM.
For the compound `CC(C)CCNC(=O)c1ccnnc1SCCC(F)(F)c1ccc(F)cc1` [Example 12, 3-[[3,3-Difluoro-3-(4-fluorophenyl)-propyl]sulfanyl]-N-(3-methyl-butyl)-pyridazine-4-carboxylic acid amide], the Emax was found to be 203% and the EC50 is 427 nM.
For `O=C(NCc1ccc(F)cc1)c1ccnnc1SCCC(F)(F)c1ccc(F)cc1` [Example 13, 3-[[3,3-Difluoro-3-(4-fluorophenyl)-propyl]sulfanyl]-N-[(4-fluorophenyl)-methyl]-pyridazine-4-carboxylic acid amide] the same measures were 100% and 264 nM.
Consider `Cc1nc(SCCC(F)(F)c2ccc(F)cc2)c(C(=O)NCc2ccc(F)cc2)s1` [Example 15, 4-[[3,3-Difluoro-3-(4-fluorophenyl)-propyl]sulfanyl]-N-[(4-fluorophenyl)-methyl]-2-methyl-thiazole-5-carboxylic acid amide], for which the Emax is 83% and the EC50 was found to be 231 nM.
